Results on 25 molecules are retold here after US11964950B2, “Arylamide derivative having antitumor activity” (priority 2020, dated 2024).

Molecules are shown by their SMILES.

The first assay has as its system Calu-6 human lung cancer cells. Briefly: Cell proliferation-inhibiting activity, Calu-6 (CellTiter-Glo, ATP in viable cells). As to conditions: Calu-6, 96 h, Table 3, 4 days culture. The assay is classed as cell-based. The procedure: (§1) The cell proliferation-inhibiting activity of the compounds listed in Table 3 below was evaluated by measuring the amount of ATP in viable cells as described below.
(§2) The test compound was serially diluted with DMSO and then diluted 25-fold with Ca^2+, Mg^2+-free phosphate-buffered saline, and was then dispensed into a 96-well plate at 5 μL per well. A cell suspension containing the below indicated concentration of A549, Calu-6 or NCI-H2122 human lung cancer cells (all obtained from ATCC) was prepared using the below indicated medium with the addition of 10% fetal bovine serum (Sigma). The cell suspension was dispensed into the test compound-added plate at 95 μL per well and cultured in a 5% carbon dioxide gas incubator at 37° C. After 4 days, 80 μL of CellTiter-Glo (registered trademark) (Promega Corp.) was added to each well and the bioluminescence was measured with a fluorescent plate reader.
Calu-6: Eagle's Minimum Essential Medium (Sigma); 4000 cells/95 μL
With `CCNS(=O)(=O)Nc1nccc(Cc2cc(C(N)=O)c(Nc3ccc(I)cc3F)cc2F)c1F` [1-2, 5-[[2-(Ethylsulfamoylamino)-3-fluoropyridin-4-yl]methyl]-4-fluoro-2-(2-fluoro-4-iodoanilino)benzamide], the IC50 stood at 103 nM. That is a sub-micromolar value.
Molecule `CCS(=O)(=O)Nc1nccc(Cc2cc(C(N)=O)c(Nc3ccc(I)cc3F)c(F)c2F)c1F` [A-38, 5-[[2-(Ethylsulfonylamino)-3-fluoropyridin-4-yl]methyl]-3,4-difluoro-2-(2-fluoro-4-iodoanilino)benzamide] gave an IC50 of 122 nM. This IC50 and that of the molecule before are within 1.5-fold of each other.
Turning to `CC1(NS(=O)(=O)Nc2nccc(Cc3cc(C(=O)NC4CC4)c(Nc4ccc(I)cc4F)c(F)c3F)c2F)CCC1` [A-47, N-Cyclopropyl-3,4-difluoro-2-(2-fluoro-4-iodoanilino)-5-[[3-fluoro-2-[(1-methylcyclobutyl)sulfamoylamino]pyridin-4-yl]methyl]benzamide], inhibition was half-maximal at 104 nM (IC50).
As to `CCCS(=O)(=O)Nc1nccc(Cc2cc(C(N)=O)c(Nc3ccc(I)cc3F)c(F)c2F)c1F` [B-8, 3,4-Difluoro-2-(2-fluoro-4-iodoanilino)-5-[[3-fluoro-2-(propylsulfonylamino)pyridin-4-yl]methyl]benzamide], half-maximal inhibition (IC50) was put at 233 nM.
Same read-out and setting: the value for `CCS(=O)(=O)Nc1cccc(Cc2cc(C(=O)NC3CC3)c(Nc3ccc(I)cc3F)c(F)c2F)c1F` [D-8, N-Cyclopropyl-5-[[3-(ethylsulfonylamino)-2-fluorophenyl]methyl]-3,4-difluoro-2-(2-fluoro-4-iodoanilino)benzamide] was 112 nM; that for `CC1(NS(=O)(=O)Nc2cccc(Cc3cc(C(=O)NC4CC4)c(Nc4ccc(I)cc4F)c(F)c3F)c2F)CCC1` [D-10, N-Cyclopropyl-3,4-difluoro-2-(2-fluoro-4-iodoanilino)-5-[[2-fluoro-3-[(1-methylcyclobutyl)sulfamoylamino]phenyl]methyl]benzamide] was 307 nM.
For the molecule `NC(=O)c1cc(Cc2cccc(NS(=O)(=O)CCCF)c2F)c(F)c(F)c1Nc1ccc(I)cc1F` [E-15, 3,4-Difluoro-5-[[2-fluoro-3-(3-fluoropropylsulfonylamino)phenyl]methyl]-2-(2-fluoro-4-iodoanilino)benzamide], the IC50 is 152 nM.
For the molecule `CCCS(=O)(=O)Nc1cccc(Cc2cc(C(N)=O)c(Nc3ccc(I)cc3F)c(F)c2F)c1F` [E-18, 3,4-Difluoro-2-(2-fluoro-4-iodoanilino)-5-[[2-fluoro-3-(propylsulfonylamino)phenyl]methyl]benzamide], the IC50 came to 122 nM. The IC50 values of the last two molecules are within 1.5-fold of each other.
`NC(=O)c1cc(Cc2cccc(NS(=O)(=O)C3CCC3)c2F)c(F)c(F)c1Nc1ccc(I)cc1F` [E-20, 5-[[3-(Cyclobulsulfonylamino)-2-fluorophenyl]methyl]-3,4-difluoro-2-(2-fluoro-4-iodoanilino)benzamide] showed an IC50 of 103 nM. This IC50 and that of the molecule before are within 1.5-fold of each other.
As to `NC(=O)c1cc(Cc2cccc(NS(=O)(=O)C3COC3)c2F)c(F)c(F)c1Nc1ccc(I)cc1F` [E-21, 3,4-Difluoro-2-(2-fluoro-4-iodoanilino)-5-[[2-fluoro-3-(oxetan-3-ylsulfonylamino)phenyl]methyl]benzamide], the IC50 is 109 nM.
In turn, `COCCS(=O)(=O)Nc1cccc(Cc2cc(C(N)=O)c(Nc3ccc(I)cc3F)c(F)c2F)c1` [F-3, 3,4-Difluoro-2-(2-fluoro-4-iodoanilino)-5-[[3-(2-methoxyethylsulfonylamino)phenyl]methyl]benzamide] returned an IC50 of 118 nM.
In turn, `CNS(=O)(=O)Nc1nccc(Cc2cc(C(=O)NOC)c(Nc3ccc(Cl)cc3F)c(F)c2F)c1F` [G-4, 2-(4-Chloro-2-fluoroanilino)-3,4-difluoro-5-[[3-fluoro-2-(methylsulfamoylamino)pyridin-4-yl]methyl]-N-methoxybenzamide] registered an IC50 of 259 nM.
`CCS(=O)(=O)Nc1nccc(Cc2cc(C(=O)NC3CC3)c(Nc3ccc(C4CC4)cc3F)c(F)c2F)c1F` [G-7, N-Cyclopropyl-2-(4-cyclopropyl-2-fluoroanilino)-5-[[2-(ethylsulfonylamino)-3-fluoropyridin-4-yl]methyl]-3,4-difluorobenzamide] had an IC50 of 443 nM.
Consider `COCCNS(=O)(=O)Nc1nccc(Cc2cc(C(=O)NOC)c(Nc3ccc(I)cc3F)n(C)c2=O)c1F` [J-9, 2-(2-Fluoro-4-iodoanilino)-5-[[3-fluoro-2-(2-methoxyethylsulfamoylamino)pyridin-4-yl]methyl]-N-methoxy-1-methyl-6-oxopyridine-3-carboxamide], for which the IC50 is 232 nM.
The molecule `CCS(=O)(=O)Nc1cc(Cc2cc(C(N)=O)c(Nc3ccc(I)cc3F)n(C)c2=O)ccn1` [J-12, 5-[[2-(Ethylsulfonylamino)pyridin-4-yl]methyl]-2-(2-fluoro-4-iodoanilino)-1-methyl-6-oxopyridine-3-carboxamide] gave an IC50 of 471 nM.
`Cn1c(Nc2ccc(I)cc2F)c(C(N)=O)cc(Cc2ccnc(NS(=O)(=O)NC3CC3)c2F)c1=O` [J-13, 5-[[2-(Cyclopropylsulfamoylamino)-3-fluoropyridin-4-yl]methyl]-2-(2-fluoro-4-iodoanilino)-1-methyl-6-oxopyridine-3-carboxamide] had an IC50 of 281 nM. This IC50 is about 1.7-fold lower than that of the molecule before.
Take `CCNS(=O)(=O)Nc1nccc(Cc2cc(C(N)=O)c(Nc3ccc(I)cc3F)n(C)c2=O)c1F` [J-14, 5-[[2-(ethylsulfamoylamino)-3-fluoropyridin-4-yl]methyl]-2-(2-fluoro-4-iodoanilino)-1-methyl-6-oxopyridine-3-carboxamide]: the IC50 worked out at 123 nM. Against the preceding molecule, the IC50 is about 2.3-fold lower.
As for `Cn1c(Nc2ccc(I)cc2F)c(C(N)=O)cc(Cc2ccnc(NS(=O)(=O)NC3(C)CCC3)c2F)c1=O` [J-15, 2-(2-Fluoro-4-iodoanilino)-5-[[3-fluoro-2-[(1-methylcyclobutyl)sulfamoylamino]pyridin-4-yl]methyl]-1-methyl-6-oxopyridine-3-carboxamide], the IC50 was 284 nM.
Molecule `CCS(=O)(=O)Nc1cccc(Cc2cc(C(=O)NC3CC3)c(Nc3ccc(I)cc3F)n(C)c2=O)c1F` [K-8, N-Cyclopropyl-5-[[3-(ethylsulfonylamino)-2-fluorophenyl]methyl]-2-(2-fluoro-4-iodoanilino)-1-methyl-6-oxopyridine-3-carboxamide] displayed an IC50 of 122 nM.
Take `Cc1c(Nc2ccc(I)cc2F)c(C(N)=O)cn(Cc2ccnc(NS(=O)(=O)NC3(C)CCC3)c2F)c1=O` [P-3, 4-(2-Fluoro-4-iodoanilino)-1-[[3-fluoro-2-[(1-methylcyclobutyl)sulfamoylamino]pyridin-4-yl]methyl]-5-methyl-6-oxopyridine-3-carboxamide]: the IC50 worked out at 223 nM. This IC50 lies about 1.8-fold higher than the previous one.
`CCS(=O)(=O)Nc1nccc(Cn2cc(C(=O)NOC)c(Nc3ccc(I)cc3F)c(C)c2=O)c1F` [P-5, 1-[[2-(ethylsulfonylamino)-3-fluoropyridin-4-yl]methyl]-4-(2-fluoro-4-iodoanilino)-N-methoxy-5-methyl-6-oxopyridine-3-carboxamide] had an IC50 of 447 nM.

For another assay, the system named is A549 human lung cancer cells. Briefly: Cell proliferation-inhibiting activity, A549 (CellTiter-Glo, ATP in viable cells). The format is cell-based. Conditions: A549, 96 h, Table 3, 4 days culture. The procedure:
as §1, §2
A549: Dulbecco's Modified Eagle's Medium (Sigma); 2000 cells/95 μL
As to `COCCNS(=O)(=O)Nc1nccc(Cc2cc(C(N)=O)c(Nc3ccc(I)cc3F)cc2F)c1F` [1-4, 4-Fluoro-2-(2-fluoro-4-iodoanilino)-5-[[3-fluoro-2-(2-methoxyethylsulfamoylamino)pyridin-4-yl]methyl]benzamide], the IC50 came to 444 nM. That is a sub-micromolar value.
Consider `COCCNS(=O)(=O)Nc1nccc(Cc2cc(C(N)=O)c(Nc3ccc(I)cc3F)n(C)c2=O)c1F` [J-2, 2-(2-Fluoro-4-iodoanilino)-5-[[3-fluoro-2-(2-methoxyethylsulfamoylamino)pyridin-4-yl]methyl]-1-methyl-6-oxopyridine-3-carboxamide], for which the IC50 came to 351 nM.
The same measure, in the same setting: for `COCCNS(=O)(=O)Nc1nccc(Cc2cc(C(=O)NC3CC3)c(Nc3ccc(I)cc3F)n(C)c2=O)c1F` [J-7, N-Cyclopropyl-2-(2-fluoro-4-iodoanilino)-5-[[3-fluoro-2-(2-methoxyethylsulfamoylamino)pyridin-4-yl]methyl]-1-methyl-6-oxopyridine-3-carboxamide] the value was 101 nM.
The molecule `COCCNS(=O)(=O)Nc1nccc(Cc2cc(C(=O)NOC)c(Nc3ccc(I)cc3F)n(C)c2=O)c1F` [J-9, 2-(2-Fluoro-4-iodoanilino)-5-[[3-fluoro-2-(2-methoxyethylsulfamoylamino)pyridin-4-yl]methyl]-N-methoxy-1-methyl-6-oxopyridine-3-carboxamide] came in with an IC50 of 167 nM.
On to `CCS(=O)(=O)Nc1cc(Cc2cc(C(N)=O)c(Nc3ccc(I)cc3F)n(C)c2=O)ccn1` [J-12, 5-[[2-(Ethylsulfonylamino)pyridin-4-yl]methyl]-2-(2-fluoro-4-iodoanilino)-1-methyl-6-oxopyridine-3-carboxamide], for which the IC50 turned out to be 226 nM.
Turning to `Cn1c(Nc2ccc(I)cc2F)c(C(N)=O)cc(Cc2ccnc(NS(=O)(=O)NC3CC3)c2F)c1=O` [J-13, 5-[[2-(Cyclopropylsulfamoylamino)-3-fluoropyridin-4-yl]methyl]-2-(2-fluoro-4-iodoanilino)-1-methyl-6-oxopyridine-3-carboxamide], the IC50 is 196 nM.
With `CCNS(=O)(=O)Nc1nccc(Cc2cc(C(N)=O)c(Nc3ccc(I)cc3F)n(C)c2=O)c1F` [J-14, 5-[[2-(ethylsulfamoylamino)-3-fluoropyridin-4-yl]methyl]-2-(2-fluoro-4-iodoanilino)-1-methyl-6-oxopyridine-3-carboxamide], half-maximal inhibition (IC50) was put at 121 nM.
On the same count and under the same terms, for `CCCNS(=O)(=O)Nc1nccc(Cn2cc(C(N)=O)c(Nc3ccc(I)cc3F)c(F)c2=O)c1F` [N-2, 5-fluoro-4-(2-fluoro-4-iodoanilino)-1-[[3-fluoro-2-(propylsulfamoylamino)pyridin-4-yl]methyl]-6-oxopyridine-3-carboxamide] the value was 193 nM.
